# Test: recombinant UMI read abundance after kanamycin selection (control-corrected) (log10(CPM+1)); higher = more efficient recombination; extreme values may be limits of the assay; sequences stand for … in AGTGCAGAGAAAATCGGCCAGTTTTCTCTGCCTGCAGTCCGCATGCCGTGGGACCCCTTGGGTTCTAACCTGTTGCCTAGATTTATGCAGCGGACTGCCTTTCTCCCAAAGTGATAAACCGG…AGGTTGGTTTCACT; site = the 11-nt donor
# Procedure, shortened: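 Reported values are log10(CPM+1) from a pooled Escherichia coli screen of donor and donor-binding-loop pairs for the IS621 bridge recombinase. Selection used IPTG (0.07 mM) plus kanamycin, against unselected plating, each in two replicates. Recombinant UMIs were amplified across the donor–target junction, sequenced, converted to CPM, averaged over replicates and scaled by control-derived factors.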
# 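Further: IS621 bridge recombinase in Escherichia coli cells against a fixed T5 target plasmid.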
row,Sequence,recombinant UMI read abundance (log10)
1,ACGTGGACATGGACCGGTTTTCCCGGTAATCCGTATTTGTG (site ACGTGGACTCA),1.53
2,ACGTTAGCATGGACCGGTTTTCCCGGTAATCCGTATTTGAT (site ACGTTAGCTAT),2.62
3,ACTAAACCATGGACCGGTTTTCCCGGTAATCCGTATTTGCG (site ACTAAACCTCG),0
4,ACTAAATCATGGACCGGTTTTCCCGGTAATCCGTATTTGGC (site ACTAAATCTGC),0.218
5,ACTAATACATGGACCGGTTTTCCCGGTAATCCGTATTTGGC (site ACTAATACTGC),0.399
6,ACTAATACATGGACCGGTTTTCCCGGTAATCCGTATTTGGC (site CCTAATACTGC),0
7,ACTAATACATGGACCGGTTTTCCCGGTAATCCGTATTTGGC (site GCTAATACTGC),1.02
8,ACTAATACATGGACCGGTTTTCCCGGTAATCCGTATTTGGC (site TCTAATACTGC),1.03
9,ACTACAACATGGACCGGTTTTCCCGGTAATCCGTATTTGTG (site ACTACAACTCA),0.339
10,ACTACTGCATGGACCGGTTTTCCCGGTAATCCGTATTTGGT (site ACTAATGCTAC),0.0144
11,ACTACTGCATGGACCGGTTTTCCCGGTAATCCGTATTTGGT (site ACTACTGCTAC),0.247
12,ACTACTGCATGGACCGGTTTTCCCGGTAATCCGTATTTGGT (site ACTAGTGCTAC),0.0166
13,ACTACTGCATGGACCGGTTTTCCCGGTAATCCGTATTTGGT (site ACTATTGCTAC),0.00304
14,ACTAGCACATGGACCGGTTTTCCCGGTAATCCGTATTTGAG (site ACTAGAACTCT),0.495
15,ACTAGCACATGGACCGGTTTTCCCGGTAATCCGTATTTGAG (site ACTAGCACTCT),1.48
16,ACTAGCACATGGACCGGTTTTCCCGGTAATCCGTATTTGAG (site ACTAGGACTCT),0.0266
17,ACTAGCACATGGACCGGTTTTCCCGGTAATCCGTATTTGAG (site ACTAGTACTCT),0.517
18,ACTAGCTCATGGACCGGTTTTCCCGGTAATCCGTATTTGTT (site ACTAGCTCTAA),0.346
19,ACTAGGACATGGACCGGTTTTCCCGGTAATCCGTATTTGCT (site ACTAGGACTAG),2.36
20,ACTAGGGCATGGACCGGTTTTCCCGGTAATCCGTATTTGAG (site ACTAGGGCTCT),1.52
21,ACTAGTGCATGGACCGGTTTTCCCGGTAATCCGTATTTGAT (site ACTAGTGCTAA),0.0209
22,ACTAGTGCATGGACCGGTTTTCCCGGTAATCCGTATTTGAT (site ACTAGTGCTAC),0.0203
23,ACTAGTGCATGGACCGGTTTTCCCGGTAATCCGTATTTGAT (site ACTAGTGCTAG),0.00388
24,ACTAGTGCATGGACCGGTTTTCCCGGTAATCCGTATTTGAT (site ACTAGTGCTAT),2.1
25,ACTAGTGCATGGACCGGTTTTCCCGGTAATCCGTATTTGCT (site ACTAGTGCTAA),0.335

row,Sequence,recombinant UMI read abundance (log10)
1,ACTAGTGCATGGACCGGTTTTCCCGGTAATCCGTATTTGCT (site ACTAGTGCTAC),0.00908
2,ACTAGTGCATGGACCGGTTTTCCCGGTAATCCGTATTTGCT (site ACTAGTGCTAG),1.37
3,ACTAGTGCATGGACCGGTTTTCCCGGTAATCCGTATTTGCT (site ACTAGTGCTAT),0.0101
4,ACTATTCCATGGACCGGTTTTCCCGGTAATCCGTATTTGGT (site ACTATTCCTAC),0.00382
5,ACTCAACCATGGACCGGTTTTCCCGGTAATCCGTATTTGGT (site ACTCAACCTAC),0.00884
6,ACTCCGCCATGGACCGGTTTTCCCGGTAATCCGTATTTGTG (site ACTCCGCCTCA),0.0108
7,ACTCCGTCATGGACCGGTTTTCCCGGTAATCCGTATTTGAT (site ACTCCGTCTAT),0.697
8,ACTCGCACATGGACCGGTTTTCCCGGTAATCCGTATTTGAC (site ACTCGCACTGT),2.68
9,ACTCGGTCATGGACCGGTTTTCCCGGTAATCCGTATTTGTT (site ACTCGGTCTAA),0.936
10,ACTCGTGCATGGACCGGTTTTCCCGGTAATCCGTATTTGAC (site ACTCGTGCTGT),2.56
11,ACTCGTGCATGGACCGGTTTTCCCGGTAATCCGTATTTGAG (site ACTCGTGCTCT),1.4
12,ACTCTTTCATGGACCGGTTTTCCCGGTAATCCGTATTTGTT (site ACTCTTTCTAA),0.0432
13,ACTGAGGCATGGACCGGTTTTCCCGGTAATCCGTATTTGAA (site ACTGAGGCTTT),1.73
14,ACTGCAGCATGGACCGGTTTTCCCGGTAATCCGTATTTGCA (site ACTGCAGCTTG),1.21
15,ACTGTACCATGGACCGGTTTTCCCGGTAATCCGTATTTGCA (site ACAGTATCTTG),0.00951
16,ACTGTACCATGGACCGGTTTTCCCGGTAATCCGTATTTGCA (site ACTGTACCTTG),0
17,ACTGTGTCATGGACCGGTTTTCCCGGTAATCCGTATTTGAC (site AATGTGTCTGT),0
18,ACTGTGTCATGGACCGGTTTTCCCGGTAATCCGTATTTGAC (site ACTGTGTCTGT),0
19,ACTGTGTCATGGACCGGTTTTCCCGGTAATCCGTATTTGAC (site AGTGTGTCTGT),0
20,ACTGTGTCATGGACCGGTTTTCCCGGTAATCCGTATTTGAC (site ATTGTGTCTGT),0
21,ACTTAATCATGGACCGGTTTTCCCGGTAATCCGTATTTGTA (site ACTTAATCTTA),2.15
22,ACTTAGTCATGGACCGGTTTTCCCGGTAATCCGTATTTGCC (site ACTTAGTCTGG),2.47
23,ACTTATGCATGGACCGGTTTTCCCGGTAATCCGTATTTGGA (site AATTATGCTTC),0.425
24,ACTTATGCATGGACCGGTTTTCCCGGTAATCCGTATTTGGA (site ACTTATGCTTC),1.41
25,ACTTATGCATGGACCGGTTTTCCCGGTAATCCGTATTTGGA (site AGTTATGCTTC),0.698

row,Sequence,recombinant UMI read abundance (log10)
1,ACTTATGCATGGACCGGTTTTCCCGGTAATCCGTATTTGGA (site ATTTATGCTTC),0.623
2,ACTTCCGCATGGACCGGTTTTCCCGGTAATCCGTATTTGTT (site ACTTCCGCTAA),1.5
3,ACTTCTCCATGGACCGGTTTTCCCGGTAATCCGTATTTGAT (site ACTTCTCCTAT),0.78
4,ACTTGAACATGGACCGGTTTTCCCGGTAATCCGTATTTGAG (site ACTAGAACTCT),0.0666
5,ACTTGAACATGGACCGGTTTTCCCGGTAATCCGTATTTGAG (site ACTCGAACTCT),0.999
6,ACTTGAACATGGACCGGTTTTCCCGGTAATCCGTATTTGAG (site ACTGGAACTCT),1.23
7,ACTTGAACATGGACCGGTTTTCCCGGTAATCCGTATTTGAG (site ACTTGAACTCT),0.998
8,AGAAACACATGGACCGGTTTTCCCGGTAATCCGTATTTGGT (site AGAAACACTAC),2.3
9,AGAAAGACATGGACCGGTTTTCCCGGTAATCCGTATTTGCA (site AGAAAGACTTG),2.6
10,AGAAAGACATGGACCGGTTTTCCCGGTAATCCGTATTTGCA (site AGCAAGACTTG),1.59
11,AGAAAGACATGGACCGGTTTTCCCGGTAATCCGTATTTGCA (site AGGAAGACTTG),0.932
12,AGAAAGACATGGACCGGTTTTCCCGGTAATCCGTATTTGCA (site AGTAAGACTTG),1.15
13,AGAAAGGCATGGACCGGTTTTCCCGGTAATCCGTATTTGAT (site AGAAAGGCTAA),0.418
14,AGAAAGGCATGGACCGGTTTTCCCGGTAATCCGTATTTGAT (site AGAAAGGCTAC),0
15,AGAAAGGCATGGACCGGTTTTCCCGGTAATCCGTATTTGAT (site AGAAAGGCTAG),0
16,AGAAAGGCATGGACCGGTTTTCCCGGTAATCCGTATTTGAT (site AGAAAGGCTAT),2.28
17,AGAACGCCATGGACCGGTTTTCCCGGTAATCCGTATTTGCC (site AGAACGCCTGG),0.968
18,AGAATGACATGGACCGGTTTTCCCGGTAATCCGTATTTGCA (site AGAATGACTTG),2.63
19,AGAATGACATGGACCGGTTTTCCCGGTAATCCGTATTTGCA (site AGGAAGACTTG),1.53
20,AGAATGTCATGGACCGGTTTTCCCGGTAATCCGTATTTGGG (site AGAATGTCTCC),2.01
21,AGAATTTCATGGACCGGTTTTCCCGGTAATCCGTATTTGGG (site AGAATTTCTCC),0.964
22,AGACAGCCATGGACCGGTTTTCCCGGTAATCCGTATTTGCA (site AGACAGCCTTG),1.21
23,AGACGCACATGGACCGGTTTTCCCGGTAATCCGTATTTGTT (site AGACGCACTAA),1.79
24,AGAGAAGCATGGACCGGTTTTCCCGGTAATCCGTATTTGCG (site AGAGAAGCTCG),3.09
25,AGAGATCCATGGACCGGTTTTCCCGGTAATCCGTATTTGAA (site AGAGATCCTTT),2.01

# Reference: the supplement of paper PMC11208160
